Source: patent US8846903B2, “Acyl-urea derivatives and uses thereof” (Yissum Research Development Company of the Hebrew …, priority 2007, dated 2014)
“And” between values parts separate entries of the source, which are not always exact repeats. Equal values may be shown once.

Tests used:
[1] = system: rats; experiment: Subcutaneous metrazol seizure threshold test (scMet) in rats; assay type: in vivo; conditions: for ED50: Rattus norvegicus, po; for ED50 / ED50 scMet in Rats: rats, scMet model, oral administration (stated for Compound 1); for Fraction of rats which responded to the treatment: scMet
Description: Subcutaneous Metrazole Seizure Threshold Test (scMet) assay measures the ability of an agent to elevate seizure threshold and is considered to model generalized absence seizures. The assay was performed by subcutaneous injection of 85 mg/kg of the convulsant agent metrazole that induces clonic seizures in at least 97% of all animal models (rats and mice).

[2] = system: rats; experiment: Hippocampal kindling screen in rats; assay type: in vivo; conditions: for ED50: Rattus norvegicus, ip
Description: In a fifth model, the hippocampal kindling assay was used to identify new drug candidates effective for the treatment of difficult-to-control seizure types and complex partial seizures, as well as compounds that may be effective as mood stabilizer for treating bipolar disorder, and was conducted according to the protocol described therein.
Briefly, this test was conducted by using a bipolar stimulating electrode which was implanted in the hippocampus of rats, and the rats were kindled according to a described method. One week after implantation of the electrodes, the rats were stimulated with supra-threshold trains of 200 μA and 50 Hz for 10 seconds every 30 minutes for 6 hours on alternate days until the animals were fully kindled. […] The behavioral seizures were scored according to the following criteria (“seizure score”): stage 1—mouth and facial clonus; stage 2—stage 1 plus head nodding; stage 3—stage 2 plus forelimb clonus; stage 4—stage 3 plus rearing; and stage 5—stage 4 plus repeated rearing and falling.
For these studies, each of the compounds was evaluated for its ability to block the kindled motor seizure (seizure scores 4 and 5) and limbic behavioral seizures (seizure score between 1 and 3). Additionally the new drug candidate was evaluated for their ability to reduce after discharge duration. The term “after-discharge-duration” is the duration (measured in seconds) of the stages defined above, which are elicited by the electrical currents delivered to the rats.
At least one week after the fully kindled state was reached, a dose of the test compound was administered intraperitoneally and its effect on behavioral seizure score and after-discharge-duration following 200 μA stimulation was assessed at various time intervals before drug administration and after drug administration. Animals not displaying stage 4 or 5 were considered affected positively from seizure generalization.

[3] = system: rats; experiment: Neurotoxicity, gait and stance test in rats (TD50); conditions: oral administration, median neurological toxic dose
Description: (§2) The neurotoxicity of the compounds of the present embodiments was tested using rats which were treated by oral administration, and evaluated according to the “gait and stance” test, which assesses minimal neurotoxicity. […] The median neurological toxic dose (TD50) was used for quantization of neurotoxicity.

[4] = in vivo; conditions: rat, po
Description: as §2

[5] = system: rats; experiment: Maximal electroshock seizure test (MES) in rats; assay type: in vivo; conditions: for ED50: Rattus norvegicus; for Fraction of rats which responded to the treatment: MES
Excerpt: Briefly, Maximal Electroshock Seizure (MES) assay measures drug capacity to prevent seizure spread and is thus considered to model generalized tonic-clonic seizures. […] The current was delivered to the subjects by means of corneal electrodes to produce tonic hind limb extension. Animals not displaying tonic hind limb extension were considered affected positively by the tested compound.

[6] = system: mice; experiment: Psychomotor seizure (6 Hz, 32 mA) assay in mice; assay type: in vivo; conditions: Mus musculus, ip, intraperitoneal
Description: In a third model, the compounds were tested for their ability to block 6 Hz (32 mA) seizures following intraperitoneal administration thereof to male mice. This test is aimed at identifying new drug candidates for the treatment of therapy-resistant partial seizures.
(§1) Briefly, psychomotor seizure (6-Hz) assay measures the resistance of a subject to induced psychomotor seizures. The assay was conducted in mice which were pretreated with the test compound. At varying times after treatment, individual subjects were challenged with sufficient current of 32 mA at 6 Hz for 3 seconds, or 44 mA at 6 Hz for 3 seconds, delivered through corneal electrodes to elicit a psychomotor seizure. Animals which were not affected by the current were considered affected positively by the tested compound, thus compounds which were found active in this test are considered promising novel drug candidates for the treatment of therapy-resistant seizures.

[7] = system: mice; experiment: Psychomotor seizure (6 Hz, 44 mA) assay in mice; assay type: in vivo; conditions: Mus musculus
Description: as §1

[8] = system: mice; conditions: reported by Spielman et al. [19]; cited from earlier work
[9] = system: mice; conditions: tested by Spielman and co-workers; cited from earlier work
[10] = system: Sprague Dawley rats; experiment: Acute toxicity (acute motor impairment) after i.p. administration to rats; assay type: in vivo
Description: Acute toxicity was determined by recording acute motor impairment after three doses of 30, 100 and 300 mg/kg of the tested compounds. The compounds were administered by the intraperitoneal (i.p.) route to three groups of 4 Sprague Dawley rats. […]

[11] = system: mice; conditions: reported by Spielman et al. [19]; cited from earlier work; remark: listed apart in the source
[12] = system: mice; experiment: Bicuculline (BIC) clonic seizure assay in mice; assay type: in vivo; conditions: Mus musculus, sc, BIC 2.7 mg/kg s.c., read-out: Bicucullin ED50
[13] = system: mice; experiment: animal or person; assay type: in vivo; conditions: Mus musculus, sc, read-out: Picrotoxin ED50
[14] = system: rats; conditions: results disclosed in the art; cited from earlier work
[15] = system: rats; conditions: results disclosed in the art; cited from earlier work; remark: listed apart in the source
[16] = system: rats; conditions: oral administration, literature values; cited from earlier work
[17] = system: mice; conditions: from [31]; cited from earlier work
[18] = system: mice; conditions: from [31]; cited from earlier work; remark: listed apart in the source

Row | SMILES | ED50 [1] [mg/kg] | TD50 [4] [mg/kg] | ED50 ([5]; rats, MES model) [mg/kg] | ED50 [6] [mg/kg] | ED50 [7] [mg/kg] | anti-convulsant activity [9] | melting point [°C] | further results
1 | CCCC(C(=O)NC(N)=O)C(C)C (racemic) [Compound 1, 1-(2-isopropylpentanoyl)urea] | 45 | 95 | 16 | 42.2 | 71 | – | – | ED50 scMet in Rats [1]: 45.4 mg/kg; ED50 ([2]; rats, intraperitoneal): > 94 mg/kg; TD50 in Rats [3]: 94.5 mg/kg
2 | CC[C@@H](C)[C@@H](CC)C(=O)NC(N)=O (racemic) [Compound 4, 1-(2-ethyl-3-methyl-pentanoyl)-urea] | 14 | 97 | 24 | 21 | 48 | lack beneficial activity | – | activity in the MES assay [8]: inactive; toxicity profile (animals toxic/tested) ([10]; 100 mg/kg i.p., 0.25 hours): 0/2; toxicity profile (animals toxic/tested) ([10]; 100 mg/kg i.p., 0.5 hours): 1/2; toxicity profile (animals toxic/tested) ([10]; 100 mg/kg i.p., 1 hour): 1/2; toxicity profile (animals toxic/tested) ([10]; 100 mg/kg i.p., 2 hours): 0/2; toxicity profile (animals toxic/tested) ([10]; 100 mg/kg i.p., 4 hours): 0/2; toxicity profile (animals toxic/tested) ([10]; 300 mg/kg i.p., 0.25 hours): 2/2; toxicity profile (animals toxic/tested) ([10]; 300 mg/kg i.p., 0.5 hours): 2/2; toxicity profile (animals toxic/tested) ([10]; 300 mg/kg i.p., 1 hour): 2/2; toxicity profile (animals toxic/tested) ([10]; 300 mg/kg i.p., 2 hours): 2/2; toxicity profile (animals toxic/tested) ([10]; 300 mg/kg i.p., 4 hours): 2/2; activity in the scMet assay [11]: only active at toxic doses
3 | CCC[C@H](C(=O)NC(N)=O)C(C)C (stereo in doubt) [Compound 1R, R-1-(2-isopropylpentanoyl)urea] | – | – | – | 43 | 56 | – | – | –
4 | CCC[C@@H](C(=O)NC(N)=O)C(C)C [Compound 1S, S-1-(2-isopropylpentanoyl)urea] | – | – | – | 46 | 75 | – | – | –
5 | CC(C)C(C(=O)NC(N)=O)C(C)C [Compound 2, 1-(2-isopropyl-3-methylbutanoyl)urea] | 16 | – | 33 | 43.3 | 48.6 | – | 199 to 200 | ED50 scMet in Rats [1]: 15.7 mg/kg; Fraction of rats which responded to the treatment ([1]; dose 6 mg/kg): 1/8; Fraction of rats which responded to the treatment ([1]; dose 12 mg/kg): 2/8; Fraction of rats which responded to the treatment ([1]; dose 25 mg/kg): 6/8; Fraction of rats which responded to the treatment ([1]; dose 50 mg/kg): 8/8; ED50 ([2]; rats, intraperitoneal): > 200 mg/kg; Fraction of rats which responded to the treatment ([5]; dose 15 mg/kg): 1/8; Fraction of rats which responded to the treatment ([5]; dose 30 mg/kg): 5/8; Fraction of rats which responded to the treatment ([5]; dose 60 mg/kg): 5/8; Fraction of rats which responded to the treatment ([5]; dose 120 mg/kg): 8/8; ED50 MES in Rats ([5]; rats, MES model): 32.7 mg/kg
6 | CC(C)(C)CC(=O)NC(N)=O [Compound 3, 1-(3,3-dimethyl-butyryl)urea] | 26 | 143 | 63.9 | 80 | – | – | 174 to 175 | ED50 ([2]; rats, intraperitoneal): 35 mg/kg; After Discharge Duration After administration ([2]; individual kindled rats, 15 minutes after intraperitoneal administration, before: 93-103 (rat 1), 28-75 (rat 2)): significantly decreased and 4 sec and 14 sec; Seizure Score After administration ([2]; individual kindled rats, 15 minutes after intraperitoneal administration, score before administration 5): 0; ED50 Hippocampal kindling in Rats ([2]; rats, intraperitoneal): 35.1 mg/kg; ED50 [12]: 205 mg/kg; ED50 [13]: 167 mg/kg
7 | CCCCC(CC)C(=O)NC(N)=O (centres unmarked) [Compound 5, 1-(2-ethyl-hexanoyl)-urea] | – | – | – | – | – | lack beneficial activity | 158 to 159 | –
8 | CCCC(CCC)C(=O)NC(N)=O [Compound 6, 1-(2-propyl-pentanoyl)-urea] | 76.8 | – | 53.8 | 57.8 | 105 | lack beneficial activity | – | ED50 ([2]; rats, intraperitoneal): > 180 mg/kg
9 | CC(C)CC(=O)NC(N)=O [Compound 7, 3-methylbutanoylurea] | 83 | < 500 | > 250 | – | – | lack beneficial activity | – | –
10 | CCC(C)C(=O)NC(N)=O (centres unmarked) [Compound 8, 2-methylbutanoylurea] | – | – | – | – | – | lack beneficial activity | 178 to 180 | –
11 | CC(C)(C)C(=O)NC(N)=O [Compound 9, 2,2-dimethylpropanoylurea] | 29.8 | 228 | 69.4 | – | – | – | 148 to 149 | –
12 | CC1(C)C(C(=O)NC(N)=O)C1(C)C [Reference Compound 1, N-(2,2,3,3-tetramethylcyclopropanecarbonyl)urea] | – | – | – | – | – | – | – | ED50 rat-MES model [14]: 29 mg/kg; ED50 rat-scMet model [15]: 92 mg/kg
13 | CC1(C)C(C(=O)NCC(N)=O)C1(C)C [Reference Compound 2, N-(2,2,3,3-tetramethylcyclopropylcarbonyl)glycinamide] | – | – | – | – | – | – | – | TD50 [16]: above 500 mg/kg; ED50 rat-MES model [14]: 73 mg/kg; ED50 rat-scMet model [15]: higher than 250 mg/kg
14 | CCCC(CCC)C(=O)O [Valproic acid, valproic acid] | – | – | – | – | – | – | – | Picrotoxin ED50 [17]: 270 mg/kg; Bicucullin ED50 [18]: 589 mg/kg; ED50 rat-scMet model [15]: 646 mg/kg
